Patent publication US20260053921A1, “A MULTIPLEXED RNA REGULATION PLATFORM FOR PRIMARY IMMUNE CELL ENGINEERING” (The Board of Trustees of the Leland Stanford Junior …, priority 2022, published 2026)

Legend:
CD46 = test: Cycloheximide flow cytometric chase assay of CD46 protein degradation; format: cell-based; conditions: primary human T cells
transgenic GFP reporter = test: crRNA-guided knockdown of a transgenic GFP reporter in primary human T cells; format: cell-based; conditions: lentivirally-integrated

| Molecule | CD46 expression after CHX addition (CD46) | functional activity: knockdown of GFP reporter (transgenic GFP reporter) |
| --- | --- | --- |
| C[C@@H]1C[C@@H]([C@H](O)CC2CC(=O)NC(=O)C2)C(=O)[C@@H](C)C1 [CHX, cycloheximide] | did not reach half-maximal expression prior to T cell apoptosis | – |
| RfxCas13d: Ruminococcus flavefaciens Cas13d, SEQ ID NO: 1 (protein) MIEKKKSFAKGMGVKSTLVSGSKVYMTTFAEGSDARLEKIVEGDSIRSVNEGEAFSAEMADKNAGYKIGNAKFSHPKGYAVVANNPLYTGPVQQDMLGLKETLEKRYFGESADGNDNICIQVIHNILDIEKILAEYITNAAYAVNNISGLDKDIIGFGKFSTVYTYDEFKDPEHHRAAFNNNDKLINAIKAQYDEFDNFLDNPRLGYFGQAFFSKEGRNYIINYGNECYDILALLSGLRHWVVHNNEEESRISRTWLYNLDKNLDNEYISTLNYLYDRITNELTNSFSKNSAANVNYIAETLGINPAEFAEQYFRFSIMKEQKNLGFNITKLREVMLDRKDMSEIRKNHKVFDSIRTKVYTMMDFVIYRYYIEEDAKVAAANKSLPDNEKSLSEKDIFVINLRGSFNDDQKDALYYDEANRIWRKLENIMHNIKEFRGNKTREYKKKDAPRLPRILPAGRDVSAFSKLMYALTMFLDGKEINDLLTTLINKFDNIQSFLKVMPLIGVNAKFVEEYAFFKDSAKIADELRLIKSFARMGEPIADARRAMYIDAIRILGTNLSYDELKALADTFSLDENGNKLKKGKHGMRNFIINNVISNKRFHYLIRYGDPAHLHEIAKNEAVVKFVLGRIADIQKKQGQNGKNQIDRYYETCIGKDKGKSVSEKVDALTKIITGMNYDQFDKKRSVIEDTGRENAEREKFKKIISLYLTVIYHILKNIVNINARYVIGFHCVERDAQLYKEKGYDINLKKLEEKGFSSVTKLCAGIDETAPDKRKDVEKEMAERAKESIDSLESANPKLYANYIKYSDEKKAEEFTRQINREKAKTALNAYLRNTKWNVIIREDLLRIDNKTCTLFRNKAVHLEVARYVHAYINDIAEVNSYFQLYHYIMQRIIMNERYEKSSGKVSEYFDAVNDEKKYNDRLLKLLCVPFGYCIPRFKNLSIEALFDRNEAAKFDKEKKKVSGNS | – | confirmed the functional activity |
